In ChEMBL document CHEMBL4813920, “Metronidazole-conjugates: A comprehensive review of recent developments towards synthesis and medicinal perspective” (Eur J Med Chem, 2021):
Converted amounts (≈) assume the structure as drawn.

Assays:
[1] = tested on: Helicobacter pylori; assay: Potency index, ratio of MIC for metronidazole to test compound for Helicobacter pylori clinical isolate2 for 3 days by agar dilution method; format: functional; settings: time 3 day
[2] = tested on: Helicobacter pylori; assay: Antimicrobial activity against Helicobacter pylori clinical isolate3 for 3 days by agar dilution method; format: functional; settings: clinical isolate3, 72 h, time 3 day
[3] = tested on: Helicobacter pylori; assay: Potency index, ratio of MIC for metronidazole to test compound for Helicobacter pylori SS1 incubated for 3 days by agar dilution method; format: functional; settings: time 3 day
[4] = tested on: Helicobacter pylori; assay: Antimicrobial activity against Helicobacter pylori clinical isolate8 for 3 days by agar dilution method; format: functional; settings: clinical isolate8, 72 h, time 3 day
[5] = tested on: Helicobacter pylori; assay: Potency index, ratio of MIC for metronidazole to test compound for Helicobacter pylori clinical isolate3 for 3 days by agar dilution method; format: functional; settings: time 3 day
[6] = tested on: Helicobacter pylori; assay: Antimicrobial activity against Helicobacter pylori SS1 clinical isolate2 for 3 days by agar dilution method; format: functional; settings: SS1 clinical isolate2, 72 h, time 3 day
[7] = tested on: Helicobacter pylori; assay: Potency index, ratio of MIC for metronidazole to test compound for Helicobacter pylori clinical isolate8 for 3 days by agar dilution method; format: functional; settings: time 3 day
[8] = tested on: Helicobacter pylori; assay: Potency index, ratio of MIC for metronidazole to test compound for Helicobacter pylori ATCC 43504 incubated for 3 days by agar dilution method; format: functional, NCTC 11637 = CCUG 17874 = ATCC 43504; settings: time 3 day
[9] = tested on: Helicobacter pylori; assay: Antimicrobial activity against Helicobacter pylori SS1 incubated for 3 days by agar dilution method; format: functional; settings: SS1, 72 h, time 3 day
[10] = tested on: Helicobacter pylori; assay: Antimicrobial activity against Helicobacter pylori ATCC 43504 incubated for 3 days by agar dilution method; format: functional; settings: NCTC 11637 = CCUG 17874 = ATCC 43504, 72 h, time 3 day
[11] = tested on: Acinetobacter baumannii; assay: Antibacterial activity against Acinetobacter baumannii by microbroth dilution method; format: functional
[12] = tested on: Escherichia coli; assay: Antibacterial activity against Escherichia coli by microbroth dilution method; format: functional
[13] = tested on: Pseudomonas aeruginosa; assay: Antibacterial activity against Pseudomonas aeruginosa ATCC 27853 by microbroth dilution method; format: functional
[14] = tested on: Enterococcus faecalis; assay: Antibacterial activity against Enterococcus faecalis by microbroth dilution method; format: functional
[15] = tested on: MCF7; assay: cells; settings: Homo sapiens, MCF7, 24 h
[16] = tested on: HEK293; assay: Cytotoxicity against HEK293 cells after 24 hrs by MTT assay; format: cell-based; settings: Homo sapiens, HEK293, 24 h
[17] = tested on: MDA-MB-231; assay: Antiproliferative activity against human MDA-MB-231 cells after 24 hrs by MTT assay; format: functional, cell-based; settings: MDA-MB-231, 24 h
[18] = tested on: Clostridium perfringens; assay: Antibacterial activity against Clostridium perfringens ATCC 13124 incubated for 48 hrs under anaerobic condition by MTT assay; format: functional
[19] = tested on: Helicobacter pylori; assay: Antibacterial activity against Helicobacter pylori ATCC 26695 incubated for 48 hrs by MTT assay; format: functional, organism-based
[20] = tested on: Helicobacter pylori; assay: Antibacterial activity against Helicobacter pylori P12 incubated for 48 hrs by MTT assay; format: functional, organism-based
[21] = Cytotoxicity against African green monkey Vero cells incubated for 48 hrs by sulforhodamine B method; format: cell-based; settings: chlorocebus sabaeus
[22] = tested on: Giardia intestinalis; assay: Antigiardial activity against Giardia intestinalis MSS:0696:1 incubated for 48 hrs; format: functional, organism-based; settings: Giardia duodenalis, MSS:0696:1, 48 h
[23] = Selectivity index, ratio of CC50 for African green monkey Vero cells to IC50 for antigiardial activity against Trichomonas vaginalis GT3; format: toxicity; settings: read-out: Ratio CC50/IC50
[24] = tested on: Trichomonas vaginalis; assay: Anti-trichomonas activity against Trichomonas vaginalis GT3 incubated for 48 hrs; format: functional, organism-based; settings: GT3, 48 h
[25] = Selectivity index, ratio of CC50 for African green monkey Vero cells to IC50 for antigiardial activity against Giardia intestinalis MSS:0696:1; format: toxicity; settings: read-out: Ratio CC50/IC50
[26] = tested on: Candida parapsilosis; assay: Antimicrobial activity against Candida parapsilosis ATCC 22019; format: functional; settings: Lodderomyces parapsilosis
[27] = tested on: Candida albicans; assay: Antimicrobial activity against Candida albicans ATCC 90023; format: functional
[28] = tested on: HeLa; assay: cells; settings: Homo sapiens, 48 h
[29] = tested on: MCF7; assay: cells; settings: Homo sapiens, MCF7, 48 h
[30] = tested on: A549; assay: cells; settings: Homo sapiens, A549, 48 h
[31] = tested on: HepG2; assay: cells; settings: Homo sapiens, HepG2, 48 h
[32] = Inhibition of Staphylococcus aureus TyrRS using L-tyrosine and tRNA as substrate preincubated for 10 mins followed by substrate addition by liquid scintillation counting method
[33] = tested on: Bacillus spizizenii; assay: Antibacterial activity against Bacillus subtilis ATCC 6633 by MH media dilution method; format: functional
[34] = tested on: Staphylococcus aureus; assay: Antibacterial activity against Staphylococcus aureus ATCC 6538 by MH media dilution method; format: functional
[35] = tested on: Escherichia coli; assay: Antibacterial activity against Escherichia coli ATCC 35218 by MH media dilution method; format: functional
[36] = tested on: Pseudomonas aeruginosa; assay: Antibacterial activity against Pseudomonas aeruginosa ATCC 13525 by MH media dilution method; format: functional
[37] = tested on: Entamoeba histolytica; assay: Antiamoebic activity against Entamoeba histolytica HM-1:IMSS trophozoites measured after 72 hrs by microdilution method; format: functional, organism-based
[38] = tested on: Bacillus spizizenii; assay: Antibacterial activity against Bacillus subtilis ATCC 6633 incubated for 24 hrs by two fold serial dilution method; format: functional
[39] = tested on: Staphylococcus aureus; assay: Antibacterial activity against Staphylococcus aureus ATCC 6538 incubated for 24 hrs by two fold serial dilution method; format: functional
[40] = Acute oral toxicity in mouse assessed as behavioral changes measured once daily for 14 days; settings: in vivo, time 14 day
[41] = Acute oral toxicity in mouse assessed as induction of mortality measured once daily for 14 days; settings: in vivo, time 14 day
[42] = Inhibition of Escherichia coli N-terminal His-tagged FabH expressed in Escherichia coli BL21(DE3) by liquid scintillation counting method
[43] = Acute oral toxicity in mouse assessed as signs of gross toxicity measured once daily for 14 days; settings: in vivo, time 14 day
[44] = tested on: Pseudomonas aeruginosa; assay: Antibacterial activity against Pseudomonas aeruginosa ATCC 13525 incubated for 24 hrs by two fold serial dilution method; format: functional
[45] = tested on: Escherichia coli; assay: Antibacterial activity against Escherichia coli ATCC 35218 incubated for 24 hrs by two fold serial dilution method; format: functional

## Cc1ncc([N+](=O)[O-])n1CCOc1cc(O)c2c(=O)c(-c3ccc(O)cc3)coc2c1
[1]
  Ratio: >50
[2]
  MIC: 0.39 µg/mL (≈ 0.921 µM)
[3]
  Ratio: >50
[4]
  MIC: 0.39 µg/mL (≈ 0.921 µM)
[5]
  Ratio: >50
[6]
  MIC: 0.39 µg/mL (≈ 0.921 µM)
[7]
  Ratio: >50
[8]
  Ratio: >50
[9]
  MIC: 0.39 µg/mL (≈ 0.921 µM)
[10]
  MIC: 0.39 µg/mL (≈ 0.921 µM)

## CCn1cc(C(=O)O)c(=O)c2cc(F)c(N3CCNCC3)cc21 [NORFLOXACIN]
[11]
  MIC: 803 µM (≈ 256 µg/mL)
[12]
  MIC: 1600 µM (≈ 513 µg/mL)
[13]
  MIC: 1600 µM (≈ 513 µg/mL)
[14]
  MIC: 803 µM (≈ 256 µg/mL)

## Cc1ncc([N+](=O)[O-])n1Cc1cn(CCCCCN2C(=O)C(=O)c3cc(F)ccc32)nn1
[15]
  IC50: 70700 nM
[16]
  IC50: > 100000 nM
[17]
  IC50: 56200 nM

## Cc1ccc(C(C)C)cc1OCCn1c([N+](=O)[O-])cnc1C
[18]
  MIC: 2.7 µM (≈ 0.819 µg/mL)
[19]
  IC50: 4.921 uM/ml
[20]
  IC50: 0.0011 uM/ml

## Cc1ncc([N+](=O)[O-])n1CCOC(=O)Nc1ccc([N+](=O)[O-])cc1
[21]
  CC50 at 48 h: > 100000 nM
[22]
  IC50: 860 nM
[23]
  selectivity ratio: > 10
[24]
  IC50: 9990 nM
[25]
  selectivity ratio: > 116

## OC(Cn1cncn1)(Cn1cncn1)c1ccc(F)cc1F [FLUCONAZOLE]
[26]
  MIC: 156 µM (≈ 47.8 µg/mL)
[27]
  MIC: 156 µM (≈ 47.8 µg/mL)

## Cc1ncc([N+](=O)[O-])n1CCOC(=O)Nc1ccccc1
[21]
  CC50 at 48 h: > 100000 nM
[22]
  IC50: 980 nM
[23]
  selectivity ratio: 1110
[24]
  IC50: 90 nM
[25]
  selectivity ratio: > 102

## COc1cc2c(c(OC)c1OC)-c1ccc(OC)c(=O)cc1[C@@H](NC(C)=O)CC2 [COLCHICINE]
[28]
  IC50: 55 nM
[29]
  IC50: 38 nM
[30]
  IC50: 37 nM
[31]
  IC50: 45 nM

## COc1ccc(-c2cc(C(=O)OCCn3c([N+](=O)[O-])cnc3C)nn2-c2ccc(Cl)cc2)cc1
[32]
  IC50: 1670 nM
[33]
  MIC: 7.82 µg/mL (≈ 16.2 µM)
[34]
  MIC: 7.82 µg/mL (≈ 16.2 µM)
[35]
  MIC: 3.91 µg/mL (≈ 8.11 µM)
[36]
  MIC: 1.96 µg/mL (≈ 4.07 µM)

## Cc1ncc([N+](=O)[O-])n1CCOC(=O)NC1CCCCC1
[21]
  CC50 at 48 h: > 100000 nM
[22]
  IC50: 460 nM
[23]
  selectivity ratio: 1670
[24]
  IC50: 60 nM
[25]
  selectivity ratio: > 217

## Cc1ncc([N+](=O)[O-])n1CCOC(=O)Nc1ccc(OCc2cccc(I)c2)cc1
[37]
  IC50: 260 nM

## COc1ccc(-c2cc(C(=O)OCCn3c([N+](=O)[O-])cnc3C)nn2-c2ccccc2)cc1
[32]
  IC50: 920 nM
[33]
  MIC: 3.91 µg/mL (≈ 8.74 µM)
[34]
  MIC: 3.91 µg/mL (≈ 8.74 µM)
[35]
  MIC: 1.96 µg/mL (≈ 4.38 µM)
[36]
  MIC: 0.98 µg/mL (≈ 2.19 µM)

## COc1cc(/C=C\c2ncc([N+](=O)[O-])n2CCOC(=O)c2c[nH]c3ccccc23)cc(OC)c1OC
[28]
  IC50: 15 nM
[29]
  IC50: 30 nM
[30]
  IC50: 35 nM
[31]
  IC50: 40 nM

## Cc1ncc([N+](=O)[O-])n1CC(C)OC(=O)c1ccc(/C=N/c2ccc(S(=O)(=O)NC(=N)N)cc2)cc1 (centres undefined)
[38]
  MIC: 3.13 µg/mL (≈ 6.09 µM)
[39]
  MIC: 12.5 µg/mL (≈ 24.3 µM)
[40]
  LD50 at 336 h: > 5000 mg/kg
[41]
  LD50 at 336 h: > 5000 mg/kg
[42]
  IC50: 4930 nM
[43]
  LD50 at 336 h: > 5000 mg/kg
[44]
  MIC: 25 µg/mL (≈ 48.7 µM)
[45]
  MIC: 3.13 µg/mL (≈ 6.09 µM)
